For one molecule, alpha-2A receptor activity results are on record in patent US20110160265A1, “METHOD OF TREATING MOTOR DISORDERS WITH ALPHA-2B ADRENERGIC RECEPTOR AGONISTS” (priority 2007, published 2011).

The target in this assay is T1, alpha-2A receptor (Homo sapiens, UniProt P08913).
T1 sequence (P08913 1-465): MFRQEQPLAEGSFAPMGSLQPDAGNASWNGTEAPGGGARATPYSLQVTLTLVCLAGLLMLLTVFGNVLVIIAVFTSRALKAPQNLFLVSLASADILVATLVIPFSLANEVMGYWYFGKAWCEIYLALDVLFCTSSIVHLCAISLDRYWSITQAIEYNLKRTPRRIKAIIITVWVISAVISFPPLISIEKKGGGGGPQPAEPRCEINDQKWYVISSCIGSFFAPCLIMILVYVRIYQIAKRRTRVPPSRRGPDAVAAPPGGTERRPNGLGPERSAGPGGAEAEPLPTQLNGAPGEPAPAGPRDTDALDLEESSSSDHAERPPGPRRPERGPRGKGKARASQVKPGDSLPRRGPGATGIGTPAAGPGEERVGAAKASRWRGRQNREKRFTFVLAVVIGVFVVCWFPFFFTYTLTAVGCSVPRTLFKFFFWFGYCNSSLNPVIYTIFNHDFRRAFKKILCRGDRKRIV
As to the kind of experiment: Alpha-2A receptor activity (efficacy relative to brimonidine). The class given is cell-based. Conditions: in words; b7: lacks significant activity = less than 40% of the efficacy of brimonidine at alpha-2A. An excerpt: The methods of the present invention use alpha-2 agonists lacking significant activity at the alpha-2A receptor subtype. An agonist lacks significant alpha-2A receptor activity if the agonist has less than 40% of the efficacy of brimonidine at the alpha-2A receptor subtype. Compounds of the invention include, therefore, alpha-2B receptor agonists lacking significant alpha-2A activity; alpha 2B/2C receptor agonists lacking significant alpha-2A activity; and alpha-2C receptor agonists lacking significant alpha-2A activity.
Efficacy, also known as intrinsic activity, is a measure of maximal receptor activation achieved by a compound and can be determined using any accepted assay of alpha-adrenergic receptor activation, such as a cAMP or Receptor Selection and Amplification Technology (RSAT). Efficacy is represented as a ratio or percentage of the maximal effect of the drug to the maximal effect of a standard agonist for each receptor subtype. Brimonidine, itself an alpha-2B receptor agonist (it is has 100% the efficacy of brimonidine at the alpha-2B adrenergic receptor), is used as the standard agonist for the alpha-2B adrenergic receptors.
Agonist activity can be characterized using any of a variety of routine assays, including, for example, Receptor Selection and Amplification Technology (RSAT) assays (Messier et al., Pharmacol. Toxicol. 76:308-11 (1995); cyclic AMP assays (Shimizu et al., J. Neurochem. 16:1609-1619 (1969)); and cytosensor microphysiometry assays (Neve et al., J. Biol. Chem. 267:25748-25753 (1992)). Such assays generally are performed using cells that naturally express only a single alpha-adrenergic receptor subtype, or using transfected cells expressing a single recombinant alpha-adrenergic receptor subtype. The adrenergic receptor can be a human receptor or homolog of a human receptor having a similar pharmacology.
The RSAT assay measures receptor-mediated loss of contact inhibition resulting in selective proliferation of receptor-containing cells in a mixed population of confluent cells. The increase in cell number is assessed with an appropriate detectable marker gene such as beta-galactosidase, if desired, in a high throughput or ultra high throughput assay format. Receptors that activate the G protein, Gq, elicit the proliferative response. Alpha-adrenergic receptors, which normally couple to Gi, activate the RSAT response when coexpressed with a hybrid Gq protein containing a Gi receptor recognition domain, designated Gq/i5. Conklin et al., Nature 363:274-6 (1993)).
As an example, an RSAT assay can be performed essentially as follows. NIH-3T3 cells are plated at a density of 2×10^6 cells in 15 cm dishes and maintained in Dulbecco's modified Eagle's medium supplemented with 10% calf serum. One day later, cells are cotransfected by calcium phosphate precipitation with mammalian expression plasmids encoding p-SV-β-galactosidase (5-10 μg), receptor (1-2 μg) and G protein (1-2 μg). Carrier DNA, for example 40 μg salmon sperm DNA, also can be included to increase transfection efficiency. Fresh media is added on the following day; one to two days later, cells are harvested and frozen in 50 assay aliquots. Transfected cells are thawed, and 100 μl of cells added to 100 μl aliquots of compound to be tested, with various concentrations assayed in triplicate, for example, in 96-well plates. Incubation continues for 72 to 96 hours at 37° C. After washing with phosphate-buffered saline, β-galactosidase activity is determined by adding 200 μl of chromogenic substrate (3.5 mM O-nitrophenyl-β-D-galactopyranoside/0.5% NP-40 in phosphate buffered saline), incubating overnight at 30° C., and measuring optical density at 420 nm. The absorbancy is a measure of enzyme activity, which depends on cell number and reflects receptor-mediated cell proliferation. The EC50 and maximal effect (i.e., efficacy) of each drug at each receptor is determined.

In the case of `O=C1c2ccccc2CC[C@H]1Cc1c[nH]c(=S)[nH]1` [Compound E], the alpha-2A receptor activity entry is listed as “lack significant alpha-2A receptor activity”.
